This note sets out measurements from ChEMBL document CHEMBL1152564, “Antagonists of the human A(2A) receptor. Part 6: Further optimization of pyrimidine-4-carboxamides” (Bioorg Med Chem, 2009).

Structures are written as SMILES.

Format in all cases: ADME, organism-based
A short description of series [1]: Volume of distribution in rat. Conditions: in vivo.
The nature of series [2]: Clearance in rat. Conditions: in vivo.
Series [3] can be described thus: Terminal half life in rat. Particulars: in vivo, read-out: beta t1/2 (converted).
Series [4] can be described thus: Tmax in rat plasma.
The nature of series [5]: Oral bioavailability in rat. Conditions: in vivo.

The molecule `Cc1cccc(CNC(=O)c2cc(-c3ccc(C)o3)nc(N)n2)n1` returned a Vd in series [1] of 0.7 L/kg. In series [2], the clearance is 32.5 mL/min/kg. The half-life in series [3] is 180 min. For the same molecule, the time of peak concentration (Tmax) in series [4] is 15 min. Besides, in series [5], the bioavailability was 3%.
